In PMC6151825, “Identification of Novel Bisbenzimidazole Derivatives as Anticancer Vacuolar (H^+)-ATPase Inhibitors” (Molecules : A Journal of Synthetic Chemistry and Natural …, 2017):

How the values were obtained:
MCF10A cells = test: MTS cell viability assay, MCF10A normal breast epithelial cells; format: cell-based; details: Homo sapiens, MCF-10A, normal breast epithelial cell line, 48 h exposure, read-out: IC50 ± SD, MCF10A
Description: (§1) Our research group is extensively involved in studying the role of vacuolar (H^+)-ATPase in breast as well as ovarian cancer cell lines. We examined the antiproliferative activity of the novel bisbenzimidazole derivatives (2a–e) in selected human breast cancer cell lines, MDA-MB-231 (ATCC, HTB-26), MDA-MB-468 (ATCC, HTB-132), MCF-7 (ATCC, HTB-22), and the normal breast epithelial cell line, MCF10A. We also used the cisplatin-sensitive A2780, PA-1 (ATCC, CRL 1572), and the cisplatin-resistant Cis-A2780 ovarian cancer cell lines. A potent V-ATPase inhibitor, Bafilomycin A1 (Baf A1), was used as the positive control. We employed the CellTiter 96 AQueous One solution cell proliferation assay (MTS; Promega) to measure the in vitro cell viability of the cells.
(§2) We studied the antiproliferative activity of an initial hit (compound V), and bisbenzimidazole analogs 2a–e in the selected human breast cancer cell lines MDA-MB-231 (ATCC, HTB-26), MDA-MB-468 (ATCC, HTB-132), MCF-7 (ATCC, HTB-22) and the normal breast epithelial cell line, MCF10A, and the ovarian cancer cell lines, A2780, Cis-A2780, and PA-1 (ATCC, CRL 1572). Human breast cancer cell lines and the human ovarian cancer cell line (PA-1) were purchased from ATCC (American Type Culture Collection, Manassas, VA, USA). The cisplatin-sensitive human ovarian carcinoma cell line, A2780, was obtained from Sigma-Aldrich. The cisplatin-resistant human ovarian cell line, Cis-A2780, was produced in our laboratory, as described in the literature. MDA-MB-231, MDA-MB-468, MCF7, and PA-1 were cultured in the MEM medium (Gibco—Life Technologies, Carlsbad, CA, USA). For the MCF-7 cell line, a final concentration of 0.01 mg/mL human recombinant insulin was added to the media. The normal breast epithelial cell line, MCF-10A, was cultured in complete MEBM (Lonza/Clonetics, Walkersville, MD, USA), as recommended by ATCC. A2780, Cis-A2780 cell lines were cultured in RPMI 1640 medium (Invitrogen, Carlsbad, CA, USA). All media were supplemented with 10% (v/v) heat-inactivated fetal bovine serum (Biowest LLC, Riverside, MO, USA), 100 U/mL penicillin G and 100 U/mL streptomycin (Sigma Aldrich, St. Louis, MO, USA). Cultures were maintained at 37 °C in a humidified atmosphere containing 5% CO2 and were passaged by trypsinization after reaching 80–90% confluence.
(§3) CellTiter 96 AQueous One Solution cell proliferation assay (MTS) was used to measure the in vitro cell viability of cells, and the MTS purchased from Promega (Madison, WI, USA). Cells (5 × 10^3) were seeded into each well of 96-well plates and incubated overnight. Dimethyl Sulfoxide (DMSO) stock solutions of the compounds (V, 2a–e) were diluted in corresponding media and exposed to different concentrations for 48 h. All three independent experiments were performed in quadruplicates. Untreated cells were used as a negative control and data were presented as the mean ± standard deviation (S.D.). The absorbances at 492 nm were measured using a Microplate Reader (Synergy HT, Biotek Instruments, Winooski, VT, USA). The compound concentration that inhibited cell growth by 50% of the untreated control (IC50) was calculated from the dose response curves constructed by plotting percentages of cell viability versus drug concentrations using nonlinear regression analysis by GraphPad Prism Software 7 (GraphPad Software, San Diego, CA, USA).

Cis-A2780 cells = test: MTS cell viability assay, Cis-A2780; format: cell-based; details: Homo sapiens, cisplatin-resistant ovarian cancer cell line, 48 h exposure, read-out: IC50 ± SD, Cis-A2780
Description: as §1, §2, §3

MDA-MB-231 cells = test: MTS cell viability assay, MDA-MB-231; format: cell-based; details: Homo sapiens, breast cancer cell line, 48 h exposure, read-out: IC50 ± SD, MDA-MB-231
Description: as §1, §2, §3

V-ATPase = test: Proton pump activity, acridine orange fluorescence quenching in MDA-MB-231 cells; format: cell-based, human; details: 20 min incubation, relative to untreated control
Description: Since our hit compound (V) has been identified by the literature known V-ATPases, we hypothesized that these newly synthesized bisbenzimidazole derivatives (2a–e) will work as proton pump inhibitors (PPIs). To neutralize the acidic microenvironment, PPIs have been used to target the V-ATPase pumps present on the cell membrane. […] Therefore, we selected efficacious anticancer agents for the proton pump activity. We performed the standard proton pump activity using the acridine orange (AO) fluorescence quenching method. We selected two highly efficacious compounds (2d and 2e) and our initial hit (V) for proton pump activity. Baf A1 is a known V-ATPase inhibitor and is used as a positive control. The proton pump activity of cells was measured as a decrease in the fluorescence intensity per min. The activity of cells in the presence of Baf A1 and the potent compounds (V, 2d, and 2e) was calculated as a percentage of the untreated control. The values represented are mean values of duplicate measurements (Figure 10).
The proton pump activity was assessed by using the AO fluorescence quenching method. Bafilomycin A1 (Baf A1), AO, and nigericin were purchased from Sigma-Aldrich. Hank’s Balanced Salt Solution (HBSS) was purchased from Gibco-Life Technologies (Carlsbad, CA, USA). Human breast cancer MDA-MB-231 (ATCC, HTB-26) cells were washed twice with Hank’s Balanced Salt Solution (HBSS). The cells were re-suspended at a density of 5 × 10^6 cells per mL in the same buffer and placed on ice. H^+ uptake was initiated by the addition of MDA-MB-231 cells (10 μL; […]) to pre-warmed HBSS (2.4 mL) containing AO (6 μL; 30 μM) and placed in a cuvette. AO fluorescence was measured at an excitation wavelength of 495 nm and an emission wavelength of 540 nm using the LS-50B Luminescence Spectrometer (Perkin Elmer, Software: FL WinLab, Version 4.00.03). Nigericin (6 μL; 6 μM) was added to collapse the pH gradient and unquench the AO fluorescence (See Supplementary Figure S1: 1a and 1b). […] A decrease in the fluorescence intensities per min of Baf A1 and the potent compounds (V, 2d, and 2e) was calculated and is expressed as a percentage of the control (mean ± SD of two independent experiments) (Figure 10).
Figure 10 Effect of V-ATPase inhibitors on proton pump activity. Cells (MDA-MB-231) were subjected to acridine orange (AO) fluorescence quenching assay in the presence and absence of Baf A1 (1 μM) and potent compounds (V, 2d, and 2e; 10 μM). Fluorescence intensity at an excitation of 495 nm and an emission of 540 nm was quantified. Decrease in fluorescence intensity per min was calculated as percentage relative to control (mean ± SD; n = 2).

A2780 cells = test: MTS cell viability assay, A2780; format: cell-based; details: Homo sapiens, cisplatin-sensitive ovarian cancer cell line, 48 h exposure, read-out: IC50 ± SD, A2780
Description: as §1, §2, §3

MCF7 cells = test: MTS cell viability assay, MCF7; format: cell-based; details: Homo sapiens, breast cancer cell line, 48 h exposure, read-out: IC50 ± SD, MCF7
Description: as §1, §2, §3

MDA-MB-468 cells = test: MTS cell viability assay, MDA-MB-468; format: cell-based, human; details: for IC50: Homo sapiens, MDA-MB-468, triple-negative breast cancer cell line, 48 h exposure, MTS, read-out: IC50 ± SD, MDA-MB-468
Description: as §1, §2, §3

PA-1 cells = test: MTS cell viability assay, PA-1; format: cell-based; details: Homo sapiens, cisplatin-sensitive ovarian cancer cell line, 48 h exposure, read-out: IC50 ± SD, PA-1
Description: as §1, §2, §3

## CO/C1=C\C(C)=C\[C@@H](C)[C@@H](O)[C@@H](C)C/C(C)=C/C=C/[C@H](OC)[C@@H]([C@@H](C)[C@@H](O)[C@H](C)[C@@]2(O)C[C@@H](O)[C@H](C)[C@@H](C(C)C)O2)OC1=O [Baf A1, Bafilomycin A1, reference compound]
MCF10A cells
  IC50: 0.036 ± 0.04 µM
Cis-A2780 cells
  IC50: 0.008 ± 0.01 µM
MDA-MB-231 cells
  IC50: 0.026 ± 0.02 µM
V-ATPase; 1 μM
  inhibition of the H^+-ATPase activity: 25%

## CN1CCC(Oc2ccc(-c3nc4ccc(-c5nc6ccc(N7CCN(C)CC7)cc6[nH]5)cc4[nH]3)cc2)CC1 [Compound 2a, 6-(4-Methylpiperazin-1-yl)-2'-(4-((1-methylpiperidin-4-yl)oxy)phenyl)-1H,3'H-2,5'-bibenzo[d]imidazole]
MCF10A cells
  IC50: 13.3 ± 0.37 µM
A2780 cells
  IC50: 26.5 ± 1.44 µM
Cis-A2780 cells
  IC50: 25.2 ± 0.32 µM
other
  melting point: 165 to 166 °C
MDA-MB-231 cells
  IC50: 17.6 ± 0.19 µM
MCF7 cells
  IC50: 49.3 ± 2.76 µM
MDA-MB-468 cells
  IC50: 13.4 ± 0.33 µM

## CN(C)CCCOc1ccc(-c2nc3ccc(-c4nc5ccc(N6CCN(C)CC6)cc5[nH]4)cc3[nH]2)cc1 [Compound 2b, N,N-Dimethyl-3-(4-(6-(4-methylpiperazin-1-yl)-1H,3'H-[2,5'-bibenzo[d]imidazol]-2'-yl)phenoxy)propan-1-amine]
MCF10A cells
  IC50: 2.95 ± 0.15 µM
A2780 cells
  IC50: 11.8 ± 0.01 µM
Cis-A2780 cells
  IC50: 12.34 ± 0.02 µM
other
  melting point: 171 to 172 °C
PA-1 cells
  IC50: 5.83 ± 0.07 µM
MDA-MB-231 cells
  IC50: 4.77 ± 0.43 µM
MCF7 cells
  IC50: 13.5 ± 2.14 µM
MDA-MB-468 cells
  IC50: 5.83 ± 0.23 µM

## CN(C)CCOc1ccc(-c2nc3ccc(-c4nc5ccc(N6CCN(C)CC6)cc5[nH]4)cc3[nH]2)cc1 [Compound 2c, N,N-Dimethyl-2-(4-(6-(4-methylpiperazin-1-yl)-1H,3'H-[2,5'-bibenzo[d]imidazol]-2'-yl)phenoxy)ethanamine]
MCF10A cells
  IC50: 0.81 ± 0.1 µM
A2780 cells
  IC50: 12.9 ± 0.42 µM
Cis-A2780 cells
  IC50: 10.7 ± 0.22 µM
other
  melting point: 197 to 198 °C
PA-1 cells
  IC50: 7.78 ± 0.81 µM
MDA-MB-231 cells
  IC50: 0.75 ± 0.3 µM
MDA-MB-468 cells
  IC50: 1.17 ± 0.36 µM

## COCCOc1ccc(-c2nc3ccc(-c4nc5ccc(N6CCN(C)CC6)cc5[nH]4)cc3[nH]2)cc1 [Compound 2d, 2'-(4-(2-Methoxyethoxy)phenyl)-6-(4-methylpiperazin-1-yl)-1H,3'H-2,5'-bibenzo[d]imidazole]
MCF10A cells
  IC50: 1.55 ± 0.04 µM
A2780 cells
  IC50: 1.97 ± 0.19 µM
Cis-A2780 cells
  IC50: 3.03 ± 0.18 µM
other
  melting point: 208 to 209 °C
PA-1 cells
  IC50: 3.09 ± 0.03 µM
MDA-MB-231 cells
  IC50: 2.44 ± 0.33 µM
MCF7 cells
  IC50: 22 ± 3.9 µM
MDA-MB-468 cells
  IC50: 0.56 ± 0.05 µM
V-ATPase; 10 μM
  inhibition of the H^+-ATPase activity: 14%

## CN1CCN(c2ccc3nc(-c4ccc5nc(-c6ccc(OCCC(C)(C)C)cc6)[nH]c5c4)[nH]c3c2)CC1 [Compound 2e, 2'-(4-(3,3-Dimethylbutoxy)phenyl)-6-(4-methylpiperazin-1-yl)-1H,3'H-2,5'-bibenzo[d]imidazole]
MCF10A cells
  IC50: 1.62 ± 0.14 µM
A2780 cells
  IC50: 2.77 ± 0.05 µM
Cis-A2780 cells
  IC50: 1.34 ± 0.14 µM
other
  melting point: 247 to 248 °C
PA-1 cells
  IC50: 2.87 ± 0.15 µM
MDA-MB-231 cells
  IC50: 1.58 ± 0.05 µM
MCF7 cells
  IC50: 2.02 ± 0.12 µM
MDA-MB-468 cells
  IC50: 0.04 ± 0.02 µM
MDA-MB-468 cells; ratio of IC50 in normal MCF10A cells to IC50 in MDA-MB-468 cells
  times less toxic, MCF10A versus MDA-MB-468: ~40 times
V-ATPase; 10 μM
  inhibition of the H^+-ATPase activity: 42%

## CCOc1ccc(-c2nc3cc(-c4nc5cc(N6CCN(C)CC6)ccc5[nH]4)ccc3[nH]2)cc1 [Compound V]
MCF10A cells
  IC50: 1.14 ± 0.13 µM
A2780 cells
  IC50: 3.87 ± 0.09 µM
Cis-A2780 cells
  IC50: 3.95 ± 0.33 µM
PA-1 cells
  IC50: 1.7 ± 0.21 µM
MDA-MB-231 cells
  IC50: 1.02 ± 0.08 µM
MCF7 cells
  IC50: 9.33 ± 0.69 µM
MDA-MB-468 cells
  IC50: 0.72 ± 0.08 µM
V-ATPase; 10 μM
  inhibition of the H^+-ATPase activity: 30%
